Assay [1] deals with assay rats anesthetized with sodium pentobarbital. Put plainly: I.V. bolus injection into anesthetized bioassay rats: cardiovascular and renal responses. The class given is in vivo, rat. The settings on record: 3 nmol bolus injection. On the procedure:
Experiments were performed using male Sprague-Dawley rats, ranging in weight from 270-362 g. The rats were anesthetized by an intraperitional injection of sodium pentobarbital (70 mg.kg-1; MTC Pharmaceuticals, Hamilton, Ont.). Additional small amounts of anesthetic were administered as required in the course of the experiment. Body temperature was maintained by a heating lamp and rectal temperature monitored by a rectal probe. After installing a tracheal cannula, a femoral vein was cannulated and a priming infusion of saline (0.9% NaCl) was administered over a 20 min period (1.1 ml); this was followed by a maintenance saline infusion of 1.2 ml.h-1. The femoral artery was then cannulated for blood pressure measurement (Statham pressure transducer, model P23Db). A catheter was also advanced via the right external jugular vein towards the right heart for bolus injections of vehicle, ANF or the atrial peptide of the present invention (AHP). After tying off the penis, the bladder was cannulated for urine collection. […] The EKG was recorded for determination of heart rate.
Urine was collected in preweighed vials and volume calculated by weighing. […]
Zero time was established by 40-60 mins from the beginning the priming saline infusion. […] Cardiovascular measurements were analyzed at 5 min intervals during control and at 1, 5, 10, 15 and 20 mins following administration of injectate. […]

Assay [2] deals with antiserum to iso-rANP(1-20) (P2A). Put plainly: Double immunodiffusion / cross reactivity of antiserum raised against P2A. The format is binding, rabbit.

Entries after “also recorded” stand apart in the source; their conditions may differ. Bridge positions count the residues as written; N and C are the ends. Peptide text beside a SMILES is read from it.

In the case of `CC[C@H](C)[C@@H]1NC(=O)[C@H](CCCNC(=N)N)NC(=O)[C@H](CC(=O)O)NC(=O)[C@H]([C@@H](C)CC)NC(=O)[C@H](CCCCN)NC(=O)[C@H](CCC(N)=O)NC(=O)CNC(=O)[C@H](Cc2ccccc2)NC(=O)[C@@H](N)CSSC[C@@H](C(=O)O)NC(=O)CNC(=O)[C@H](CC(C)C)NC(=O)[C@H](CCCNC(=N)N)NC(=O)[C@H](CO)NC(=O)[C@H](C(C)C)NC(=O)[C@H](C)NC(=O)CNC1=O` [Iso-rANP(23-39)] (H-CFGQKIDRIGAVSRLGC-OH; disulfide 1-17), in assay [1], the “diuretic, natriuretic, hypotensive and bradycardic response of ring peptides (FIG. 5)” value is “significant diuretic, natriuretic, hypotensive and bradycardin response”.
As for “rANP(23-39): ring portion of rANP [reference compound]”, the “diuretic, natriuretic, hypotensive and bradycardic response of ring peptides (FIG. 5)” value in assay [1] was “substantially biologically inactive”.

B1: pro-ANP: precursor of ANP, tested for cross reactivity with the antiserum (protein, UniProt P01161 25-152, looked up)
pro-form: NPVYSAVSNTDLMDFKNLLDHLEEKMPVEDEVMPPQALSEQTDEAGAALSSLSEVPPWTGEVNPSQRDGGALGRGPWDPSDRSALLKSKLRALLAGPRSLRRSSCFGGRIDRIGAQSGLGCNSFRYRR
modifications: pro-form
For B1, the “reaction with antiserum against P2A (precipitin lines / cross reactivity)” value in assay [2] is “No cross reactivity; also recorded: did not cross-react”.

These data come from patent publication US5057495A, “Atrial hypotensive peptide” (Queen's University at Kingston, priority 1988, dated 1991).
